Assay results from ChEMBL document CHEMBL1909046, “DrugMatrix in vitro pharmacology data”.
Where a SMILES comes first, the peptide text is derived from it. Bridges are numbered along the chain shown (N, C = ends). [ ]: non-standard residue; d: D form. The star is where a group is joined. Threoninol(2S,3R) = C[C@@H](O)[C@H](CO)N*

Columns and labels:
[1] = target: T1, Alpha-1D adrenergic receptor (Homo sapiens, UniProt P25100); assay type: cell membranes, HEK293, Membrane; settings: hek293; further: in other assays of this panel Not Active means under 50% inhibition at 10 µM
T1 sequence (P25100 whole entry): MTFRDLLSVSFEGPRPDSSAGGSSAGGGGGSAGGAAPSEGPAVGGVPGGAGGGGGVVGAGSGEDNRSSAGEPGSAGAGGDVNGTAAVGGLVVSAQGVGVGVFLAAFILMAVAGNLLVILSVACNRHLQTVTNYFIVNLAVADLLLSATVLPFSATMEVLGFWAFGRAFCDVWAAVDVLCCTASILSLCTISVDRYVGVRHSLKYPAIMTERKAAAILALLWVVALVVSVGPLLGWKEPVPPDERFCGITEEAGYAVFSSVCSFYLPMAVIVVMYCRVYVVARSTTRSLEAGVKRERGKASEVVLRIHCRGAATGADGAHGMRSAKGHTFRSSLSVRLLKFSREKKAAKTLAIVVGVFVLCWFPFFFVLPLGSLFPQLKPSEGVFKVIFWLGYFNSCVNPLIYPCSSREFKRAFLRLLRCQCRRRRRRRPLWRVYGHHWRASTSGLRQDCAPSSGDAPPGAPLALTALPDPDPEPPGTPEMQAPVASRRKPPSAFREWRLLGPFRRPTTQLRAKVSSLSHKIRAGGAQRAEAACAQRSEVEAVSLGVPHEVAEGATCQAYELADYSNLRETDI

[2] = target: Aldo-keto reductase family 1 member B1 (Rattus norvegicus, UniProt P07943); assay: biochemical; assay type: tissue-based, Lens of camera-type eye;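 further: inhibition of aldose reductase enzyme activity, measured with DL-glyceraldehyde as the substrate; in other assays of this panel Not Active means under 50% inhibition at 10 µM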
[3] = DRUGMATRIX: ATPase, Na+/K+ enzyme inhibition (substrate: ATP); assay type: tissue-based, Sus scrofa, Heart; settings: Not Active = under 50% inhibition at 10 µM
[4] = DRUGMATRIX: Calcium Channel Type L, Dihydropyridine radioligand binding (ligand: [3H] Nitrendipine); assay type: cell membranes, Rattus norvegicus, Wistar, Cerebral cortex, Membrane; settings: Not Active = under 50% inhibition at 10 µM
[5] = DRUGMATRIX: Tumor Necrosis Factor (TNF), Non-Selective radioligand binding (ligand: [125I] TNF-alpha); assay type: cell membranes, Membrane; settings: u-937; Not Active = under 50% inhibition at 10 µM
[6] = target: T2, Vasoactive intestinal polypeptide receptor 1 (Homo sapiens, UniProt P32241); assay type: cell membranes, Membrane; settings: ht-29; further: in other assays of this panel Not Active means under 50% inhibition at 10 µM
T2 sequence (P32241 whole entry): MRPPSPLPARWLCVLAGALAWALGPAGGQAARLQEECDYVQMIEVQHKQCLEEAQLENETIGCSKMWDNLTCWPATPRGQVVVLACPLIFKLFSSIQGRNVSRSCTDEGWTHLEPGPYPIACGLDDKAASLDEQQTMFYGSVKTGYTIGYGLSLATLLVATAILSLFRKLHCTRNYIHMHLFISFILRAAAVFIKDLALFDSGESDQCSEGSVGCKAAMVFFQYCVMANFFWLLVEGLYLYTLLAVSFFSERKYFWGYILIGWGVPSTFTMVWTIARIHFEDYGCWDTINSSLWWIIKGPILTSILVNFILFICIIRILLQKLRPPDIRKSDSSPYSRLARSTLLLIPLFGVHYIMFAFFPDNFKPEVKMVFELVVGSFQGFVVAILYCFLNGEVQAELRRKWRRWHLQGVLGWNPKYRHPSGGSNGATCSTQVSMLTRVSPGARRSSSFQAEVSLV

[7] = DRUGMATRIX: Glutamate, Kainate radioligand binding (ligand: [3H] Kainic acid); assay type: cell membranes, Rattus norvegicus, Wistar, Brain, Membrane; settings: Not Active = under 50% inhibition at 10 µM

COc1ccccc1C(=O)N1CCC(Cc2ccccc2)CC1
Not Active: IC50 [1] | IC50 [2] | IC50 [3] | Ki [3] | IC50 [4] | Ki [4] | IC50 [5] | Ki [5] | IC50 [6] | IC50 [7] | Ki [7]

Cc1ccccc1C(=O)N1CCC(Cc2ccccc2)CC1
Not Active: IC50 [1] | IC50 [2] | IC50 [3] | Ki [3] | IC50 [4] | Ki [4] | IC50 [5] | Ki [5] | IC50 [6] | IC50 [7] | Ki [7]

O=C1CC[C@H](N2C(=O)c3ccccc3C2=O)C(=O)N1
Not Active: IC50 [1] | IC50 [2] | IC50 [3] | Ki [3] | IC50 [4] | Ki [4] | IC50 [5] | Ki [5] | IC50 [6] | IC50 [7] | Ki [7]

N=C(Nc1ccccc1)Nc1ccccc1
Not Active: IC50 [1] | IC50 [2] | IC50 [3] | Ki [3] | IC50 [4] | Ki [4] | IC50 [5] | Ki [5] | IC50 [6] | IC50 [7] | Ki [7]

C[C@@H](O)[C@H](CO)NC(=O)[C@@H]1CSSC[C@H](NC(=O)[C@H](N)Cc2ccccc2)C(=O)N[C@@H](Cc2ccccc2)C(=O)N[C@H](Cc2c[nH]c3ccccc23)C(=O)N[C@@H](CCCCN)C(=O)N[C@@H]([C@@H](C)O)C(=O)N1 (H-[dF]CF[dW]KTC-{Threoninol(2S,3R)}; disulfide 2-7)
Not Active: IC50 [1] | IC50 [2] | IC50 [3] | Ki [3] | IC50 [4] | Ki [4] | IC50 [5] | Ki [5] | IC50 [6] | IC50 [7] | Ki [7]

S=C=Nc1cccc2ccccc12 [1-NAPHTHYLISOTHIOCYANATE]
Not Active: IC50 [1] | IC50 [2] | IC50 [3] | Ki [3] | IC50 [4] | Ki [4] | IC50 [5] | Ki [5] | IC50 [6] | IC50 [7] | Ki [7]

C[C@](O)(CS(=O)(=O)c1ccc(F)cc1)C(=O)Nc1ccc(C#N)c(C(F)(F)F)c1 [(R)-BICALUTAMIDE]
Not Active: IC50 [1] | IC50 [2] | IC50 [3] | Ki [3] | IC50 [4] | Ki [4] | IC50 [5] | Ki [5] | IC50 [6] | IC50 [7] | Ki [7]

CCCC(=O)Nc1ccc(OCC(O)CNC(C)C)c(C(C)=O)c1 (configuration not stated) [ACEBUTOLOL]
Not Active: IC50 [1] | IC50 [2] | IC50 [3] | Ki [3] | IC50 [4] | Ki [4] | IC50 [5] | Ki [5] | IC50 [6] | IC50 [7] | Ki [7]

CC(=O)Nc1ccc(O)cc1 [ACETAMINOPHEN]
Not Active: IC50 [1] | IC50 [2] | IC50 [3] | Ki [3] | IC50 [4] | Ki [4] | IC50 [5] | Ki [5] | IC50 [6] | IC50 [7] | Ki [7]

COc1cc2c(c3oc(=O)c4c(c13)CCC4=O)[C@@H]1C=CO[C@@H]1O2 [AFLATOXIN]
Not Active: IC50 [1] | Ki [1] | IC50 [2] | Ki [2] | IC50 [3] | Ki [3] | IC50 [4] | Ki [4] | IC50 [5] | Ki [5] | IC50 [6] | Ki [6] | IC50 [7] | Ki [7]

N=C(N)NC(=O)c1nc(Cl)c(N)nc1N [AMILORIDE]
Not Active: IC50 [1] | IC50 [2] | IC50 [3] | Ki [3] | IC50 [4] | Ki [4] | IC50 [5] | Ki [5] | IC50 [6] | IC50 [7] | Ki [7]

Cc1cc(=O)n(-c2ccccc2)n1C [ANTIPYRINE]
Not Active: IC50 [1] | IC50 [2] | IC50 [3] | Ki [3] | IC50 [4] | Ki [4] | IC50 [5] | Ki [5] | IC50 [6] | IC50 [7] | Ki [7]

CN1C(=O)COc2c(C(=O)NC3CN4CCC3CC4)cc(Cl)cc21 (configuration not stated) [AZASETRON]
Not Active: IC50 [1] | IC50 [2] | IC50 [3] | Ki [3] | IC50 [4] | Ki [4] | IC50 [5] | Ki [5] | IC50 [6] | IC50 [7] | Ki [7]

C[C@H]1C[C@H]2[C@@H]3CCC4=CC(=O)C=C[C@]4(C)[C@@]3(Cl)[C@@H](O)C[C@]2(C)[C@@]1(O)C(=O)CO [BECLOMETHASONE]
Not Active: IC50 [1] | IC50 [2] | IC50 [3] | Ki [3] | IC50 [4] | Ki [4] | IC50 [5] | Ki [5] | IC50 [6] | IC50 [7] | Ki [7]

O=C1CC2(CCCC2)CC(=O)N1CCCCN1CCN(c2ncccn2)CC1 [BUSPIRONE]
Not Active: IC50 [2] | IC50 [3] | Ki [3] | IC50 [4] | Ki [4] | IC50 [5] | Ki [5] | IC50 [6] | IC50 [7] | Ki [7]
